{
  "source": "patent US11452718B2",
  "about": "(AVALYN PHARMA INC., priority 2012, dated 2022)",
  "key": {"[1]": {"experiment": "Bleomycin model of pulmonary fibrosis: right lung hydroxyproline content, left lung fibrosis score", "type": "in vivo, Wistar rats", "settings": "Wistar, rat, plasma, read-out: Plasma AUCO-2 hrs", "experimental": "(§1) To compare anti-fibrotic efficacy between extended-duration intratracheal, direct-lung aerosol administration and oral gavage, the bleomycin model of pulmonary fibrosis was performed. Doses for this study were selected based upon pharmacokinetic parameters obtained in Table 22 (from Example 8). Briefly, Wistar rats (175-225 grams) were administered bleomycin by the intratracheal route using a Penn Century MicroSprayer® catheter. On the seventh day following bleomycin exposure, animals initiated treatment with either saline or pirfenidone. Animals were dosed once a day on days 7 through 28, and euthanized on day 29. Pirfenidone was administered either intratracheally using Penn Century MicroSprayer catheter or by oral gavage. Sham and bleomycin control groups received either no treatment or intratracheal saline by Penn Century MicroSprayer catheter. While dosing more frequently (or less frequently) may improve the observed effects, anesthesia required for intratracheal administration reduced animal weight gain (reduced food intake) and, thus limited dosing to once a day for this study. Because anesthesia reduced weight gain, all study animals (intratracheal, oral and control) received once-a-day isoflurane using the same technique and duration. Twelve animals were enrolled into each dosing group. […] Oral gavage was administered in a single 300 mcL volume. Due to technical restrictions, instead of the mg/kg dose being equally split between six 50 mcL administrations over 2 minutes, intratracheal administration was performed with three equal 50 mcL volumes administered every 40 seconds over the same period. For dose selection, data from Table 22 was extrapolated. On day 29, animals were euthanized. Right lungs were extracted and measured for hydroxyproline content, while left lungs were subjected to histology. Histological sections were stained with picrosirius red and scored for lung tissue fibrosis. Twenty random photographs of each stained lung tissue section were taken, blinded and scored by an independent review panel. Observations were pooled for analysis. […] Doses selected for this study targeted critical pharmacokinetic parameters from the comparator oral route (matching lung tissue Cmax or plasma AUC). These targets were selected from a pharmacokinetic study wherein lung tissue and plasma were collected and pirfenidone levels were compared. In these studies, lung tissue Cmax following intratracheal administration was always the first collected time point. It is important to consider that the duration of time required to collect this first lung tissue may not accurately capture the true lung Cmax. […] It was this pharmacokinetic point that the above Cmax for dosing was selected. If it was possible to collect lung tissue earlier, the Cmax may be higher. As the Penn Century MicroSprayer catheter delivers nearly the entire loaded dose, the possible delivered Cmax in these studies may be higher. […] In this study, we divided the dose into thirds."}, "[2]": {"system": "bleomycin model of pulmonary fibrosis", "experiment": "Bleomycin model of pulmonary fibrosis: right lung hydroxyproline content, left lung fibrosis score", "type": "in vivo, Wistar rats", "settings": "for Average Hydroxyproline, difference from bleomycin control: sham-subtracted", "experimental": "as §1"}, "[3]": {"experiment": "Intravenous push of pirfenidone to a mouse: plasma and lung levels", "type": "in vivo", "settings": "40 mg/kg intravenous dose; blood about 40% of wet lung weight", "experimental": "Exemplary Lung Tissue Delivery Assumptions: • 1. The total wet weight of the adult human lung is about 685 to 1,050 grams (for calculations, conservatively about […]); • 2. The adult human lung blood volume is about 450 mL; • 3. The tissue weight of the adult human lung is conservatively 1,050 grams wet weight minus 450 mL blood weight (assuming density of 1.0), equals 600 grams; • 4. […] The inhaled route of administration is dependent upon a respirable delivered dose (RDD). The RDD is the fraction of drug inhaled in aerosol particles less than 5 microns in diameter; • 7. RDD of typical dry powder, liquid nebulization or meter-dose inhalation devices ranges from 10% to 70%. Higher and lower efficiency devices with RDDs greater than 70% and less than 10% also exist; • 8. […] From the above observations and calculations, the lower limit of efficacy in lung tissue is 8 mcg/gram; and • 10."}, "[4]": {"experiment": "Pharmacokinetics and lung-tissue distribution after oral gavage or intratracheal aerosol", "type": "in vivo, Sprague-Dawley rats", "settings": "for Lung AUC: for time >1 μg/g", "experimental": "Solutions were vortexed until all crystals dissolved. […] Plasma samples were taken at pre-dose, 0.08, 0.16, 0.25, 0.5, 0.75, 1.0, 1.5, 2, 4, and 6 hours post dosing. For lung tissue samples, eight additional rats were also dosed 70 mg/kg by the oral route. Lungs were taken at pre-dose 0.08, 0.5, 2, and 4 hours post dosing. Materials were extracted and pirfenidone quantitated as μg/mL plasma and μg/gram lung tissue. […]"}, "[5]": {"settings": "cited from earlier work; for oral Cmax / Cmax: IPF patients; for Cmax: read-out: oral Cmax"}, "[6]": {"experiment": "Osmolality determination and nebulization for taste testing, throat irritation and cough response of selected formulations", "settings": "for Cough Response? / Throat Irritation?: nebulized", "from_the_text": "Selected formulations were subjected to osmolality determination and nebulization for taste testing and throat irritation and or cough response."}, "[7]": {"settings": "bolus aerosol intratracheal 1 mg/kg"}, "[8]": {"settings": "bolus aerosol intratracheal 5 mg/kg"}, "[9]": {"settings": "pirfenidone 27.2 mg/mL, 4% EtOH, 8% PG, 88% phosphate buffer (5 mM), pH 6.6"}, "[10]": {"settings": "pirfenidone 34.7 mg/mL, 6% EtOH, 12% PG, 82% phosphate buffer (5 mM), pH 7.0"}, "[11]": {"settings": "pirfenidone 43.7 mg/mL, 8% EtOH, 16% PG, 0 mM sodium saccharin, 76% phosphate buffer (5 mM), pH 7.0"}, "[12]": {"settings": "pirfenidone 43.7 mg/mL, 8% EtOH, 16% PG, 0.3 mM sodium saccharin, 76% phosphate buffer (5 mM), pH 7.0"}},
  "note": "Values joined by “and” are separate entries in the source; they are usually repeats but may differ in a detail not shown here. Equal values may be shown once. Read-outs that look alike come from different tables or passages of the source. Marks after values point to notes of the source that are not given here.",
  "data": [
    {"smiles": "Cc1ccc(=O)n(-c2ccccc2)c1", "note": "[pirfenidone, 5-methyl-1-phenyl-2-(1H)-pyridone]", "values": [
      {"measurement": "AUC", "setting": "[1]; inhaled or intranasal, Bleomycin + IT 0.9 mg/kg", "result": 3000, "unit": "ng·h/mL"},
      {"measurement": "AUC", "setting": "[1]; inhaled or intranasal, Bleomycin + IT 3.0 mg/kg", "result": 7700, "unit": "ng·h/mL"},
      {"measurement": "AUC", "setting": "[1]; inhaled or intranasal, Bleomycin + IT 6.4 mg/kg", "result": 16500, "unit": "ng·h/mL"},
      {"measurement": "AUC", "setting": "[1]; Bleomycin + PO 30 mg/kg", "result": 16600, "unit": "ng·h/mL"},
      {"measurement": "AUC", "setting": "[1]; Bleomycin + PO 100 mg/kg", "result": 29600, "unit": "ng·h/mL"},
      {"measurement": "possible lung tissue Cmax", "setting": "[2]; 0.9 mg/kg intratracheal dose divided into thirds", "result": "about 50 mcg/gram lung tissue"},
      {"measurement": "possible lung tissue Cmax", "setting": "[2]; 0.9 mg/kg intratracheal dose to a 250 gram rat, lung about 1.5 grams, whole dose", "result": "≤ 150", "unit": "mcg/gram"},
      {"measurement": "anti-fibrotic efficacy", "setting": "[2]; 3.0 mg/kg intratracheal, direct lung aerosol rat dose", "result": "no observed pirfenidone efficacy"},
      {"measurement": "Lung Tissue AUC0-2 hrs", "setting": "[2]; Bleomycin + IT 0.9 mg/kg", "result": 2.6, "unit": "µg·h/g"},
      {"measurement": "Lung Tissue Cmax", "setting": "[2]; Bleomycin + IT 0.9 mg/kg", "result": 11.6, "unit": "µg/g"},
      {"measurement": "Average Hydroxyproline, difference from bleomycin control", "setting": "[2]; Bleomycin + IT 0.9 mg/kg", "result": "−0.70*, **** mg/rightlung"},
      {"measurement": "Lung Tissue AUC0-2 hrs", "setting": "[2]; Bleomycin + IT 3.0 mg/kg", "result": 7.3, "unit": "µg·h/g"},
      {"measurement": "Lung Tissue Cmax", "setting": "[2]; Bleomycin + IT 3.0 mg/kg", "result": 33.5, "unit": "µg/g"},
      {"measurement": "Average Hydroxyproline, difference from bleomycin control", "setting": "[2]; Bleomycin + IT 3.0 mg/kg", "result": "−0.02**, **** mg/rightlung"},
      {"measurement": "Lung Tissue AUC0-2 hrs", "setting": "[2]; Bleomycin + IT 6.4 mg/kg", "result": 15.5, "unit": "µg·h/g"},
      {"measurement": "Lung Tissue Cmax", "setting": "[2]; Bleomycin + IT 6.4 mg/kg", "result": 71.5, "unit": "µg/g"},
      {"measurement": "Average Hydroxyproline, right lung", "setting": "[2]; Bleomycin + IT 6.4 mg/kg once a day, days 7 through 28", "result": 3.50, "unit": "mg/right lung"},
      {"measurement": "Average Hydroxyproline, difference from bleomycin control", "setting": "[2]; Bleomycin + IT 6.4 mg/kg", "result": "−0.08***, **** mg/rightlung"},
      {"measurement": "Lung Tissue AUC0-2 hrs", "setting": "[2]; Bleomycin + PO 30 mg/kg", "result": 18.2, "unit": "µg·h/g"},
      {"measurement": "Lung Tissue Cmax", "setting": "[2]; Bleomycin + PO 30 mg/kg", "result": 11.8, "unit": "µg/g"},
      {"measurement": "Lung Tissue AUC0-2 hrs", "setting": "[2]; Bleomycin + PO 100 mg/kg", "result": 34.4, "unit": "µg·h/g"},
      {"measurement": "Lung Tissue Cmax", "setting": "[2]; Bleomycin + PO 100 mg/kg", "result": 33.6, "unit": "µg/g"},
      {"measurement": "anti-fibrotic efficacy, direct lung delivery versus oral", "setting": "[2]; intratracheal aerosol versus oral gavage", "result": "more efficacious (less fibrosis and less hydroxyproline)"},
      {"measurement": "lung tissue level after subtracting blood contribution", "setting": "[3]", "result": "about 8 mcg/g"},
      {"measurement": "Lung TOE: time of exposure over 1 μg/g lung tissue", "setting": "[4]; [7]", "result": 5, "unit": "min"},
      {"measurement": "Lung Cmax", "setting": "[4]; bolus aerosol intratracheal 1 mg/kg, immediate post-dose calculated from the direct-lung delivered dose", "result": 101, "unit": "µg/g"},
      {"measurement": "Lung TOE: time of exposure over 1 μg/g lung tissue", "setting": "[4]; [8]", "result": 84, "unit": "min"},
      {"measurement": "Lung Cmax", "setting": "[4]; bolus aerosol intratracheal 5 mg/kg, immediate post-dose calculated from the direct-lung delivered dose", "result": 508, "unit": "µg/g"},
      {"measurement": "Lung AUC", "setting": "[4]; [7]", "result": 5.2, "unit": "mg·h/kg"},
      {"measurement": "Lung AUC", "setting": "[4]; [8]", "result": 25.4, "unit": "mg·h/kg"},
      {"measurement": "Lung AUC", "setting": "[4]; oral 70 mg/kg", "result": 4.3, "unit": "mg·h/kg"},
      {"measurement": "Lung Cmax", "setting": "[4]; oral 70 mg/kg", "result": 3.6, "unit": "µg/g"},
      {"measurement": "Lung TOE: time of exposure over 1 μg/g lung tissue", "setting": "[4]; oral 70 mg/kg", "result": 89, "unit": "min"},
      {"measurement": "duration of plasma level at or greater than 5 mcg/mL", "setting": "[5]; 801 mg oral pirfenidone", "result": 4, "unit": "h"},
      {"measurement": "oral Cmax", "setting": "[5]; fasting-state", "result": "about 15.7 mcg/mL"},
      {"measurement": "Cmax", "setting": "[5]; fasting-state", "result": "~84", "unit": "µM"},
      {"measurement": "oral Cmax", "setting": "[5]; recommended fed-state", "result": "about 7.9 mcg/mL"},
      {"measurement": "Cmax", "setting": "[5]; recommended fed-state", "result": "~42", "unit": "µM"},
      {"measurement": "change in Tmax by food", "setting": "[5]; oral, fed-state", "result": "seven-fold increase"},
      {"measurement": "reduction in Cmax by food", "setting": "[5]; oral, fed-state", "result": "~50", "unit": "%"},
      {"measurement": "reduction in overall exposure (AUC) by food", "setting": "[5]; oral, fed-state", "result": "10-15% and ~20%"},
      {"measurement": "Cough Response?", "setting": "[6]; [9]", "result": "No"},
      {"measurement": "Throat Irritation?", "setting": "[6]; [9]", "result": "No"},
      {"measurement": "Cough Response?", "setting": "[6]; [10]", "result": "No"},
      {"measurement": "Throat Irritation?", "setting": "[6]; [10]", "result": "No"},
      {"measurement": "Cough Response?", "setting": "[6]; [11]", "result": "No"},
      {"measurement": "Throat Irritation?", "setting": "[6]; [11]", "result": "No"},
      {"measurement": "Cough Response?", "setting": "[6]; [12]", "result": "No"},
      {"measurement": "Throat Irritation?", "setting": "[6]; [12]", "result": "No"},
      {"measurement": "Osmolality", "setting": "[6]; pirfenidone 27.2 mg/mL, 4% EtOH, 8% PG, 88% phosphate buffer (5 mM), pH 6.6, calculated", "result": "~1830* mOsmo/Kg"},
      {"measurement": "Osmolality", "setting": "[6]; pirfenidone 34.7 mg/mL, 6% EtOH, 12% PG, 82% phosphate buffer (5 mM), pH 7.0, calculated", "result": "~2750* mOsmo/Kg"},
      {"measurement": "Osmolality", "setting": "[6]; [11]", "result": 3672, "unit": "mOsmo/Kg"},
      {"measurement": "Osmolality", "setting": "[6]; [12]", "result": 3672, "unit": "mOsmo/Kg"}
    ]}
  ]
}
